Laboratory results: US20230322812A1, “CRYSTALLINE FORM OF HETEROBICYCLIC COMPOUND” (TAIHO PHARMACEUTICAL CO., LTD., priority 2020, published 2023)

Experiments:
[1] = Oral absorbability in rats (plasma concentration of compound 1); assay type: in vivo; conditions: 30 mg/kg, male Sprague Dawley rats
Experimental: Crystal I of compound 1 was suspended in a 0.5% HPMC aqueous solution, and orally administered to male Sprague Dawley rats which were supplied from Charles River Laboratories Japan, Inc. in a dosage of 30 mg/kg. After 1, 2, 4, 6, 8, and 24 hours from administration, blood of each rat was collected from the left jugular vein, and the concentration of compound 1 in plasma was measured.

[2] = Solid stability of crystal I (storage, chemical purity by HPLC); assay type: physicochemical; conditions: stored at 40° C. (humidity not controlled), 40° C. (humidity 75%) and 60° C. (humidity not controlled) for 4 weeks, all conditions
Experimental: (iii) High-Performance Liquid Chromatography
Measurement by high-performance liquid chromatography was performed under the following conditions.
Mobile Phase A: 10 mM phos. Buffer (pH6.3)/acetonitrile (95:5)
Mobile Phase B: acetonitrile
Column: Gemini C18 (4.6x 150 mm, 3 μm)/Phenomenex
(§1) Crystal I of compound 1 was stored at 40° C. (humidity is not controlled), 40° C. (humidity 75%), and 60° C. (humidity is not controlled) for 4 weeks. Thereafter, the chemical purity was measured by high-performance liquid chromatography, and the change was 0.5% or less under all conditions.

[3] = Dynamic vapor sorption (DVS) system analysis; assay type: physicochemical
Experimental: Dynamic vapor sorption (DVS) system analysis was performed under the following conditions.
Apparatus: VTI SA+(manufactured by TA Instruments Inc.)
Drying temperature: 60° C.
Drying equilibrium: Within the range not exceeding 300 minutes, the sample was confirmed not to decrease by 0.01 wt % in 5 minutes
Measurement temperature: 25° C.
Humidification equilibrium: Within the range not exceeding 120 minutes, the sample was confirmed not to increase by 0.01 wt % in 5 minutes
Relative Humidity Program: An increase by 5% RH from 5% RH to 95% RH and a decrease by 5% RH from 95% RH to 5% RH
A dedicated quartz holder was filled with 10 to 15 mg of crystal I of compound 1, and the weight of each sample at each humidity was continuously measured and recorded under the conditions described above. The device and data processing were handled in accordance with the method and procedure instructed for each device.

[4] = Differential scanning calorimetry (phase transition on heating); assay type: physicochemical; conditions: crystal I of Example 1; temperature increased
Experimental: (ii) Differential Scanning calorimetry Measurement (DSC Measurement)
DSC measurement was performed under the following conditions.
Device: METTLER TOLEDO: DSC1 STAR System
Sample Container: made of aluminum
Temperature Range: 25 to 400° C.
Temperature Increase Rate: 10° C./min
Atmospheric Gas: Nitrogen
Nitrogen Gas Flow: 30 ml/min
as §1

Cn1nc2ccc(-c3c[nH]c4nc(N5[C@H]6CC[C@@H]5[C@H](N)C6)n(C)c(=O)c34)c(Cl)c2c1Cl (single isomer, unassigned) [Crystal I]
oral absorbability (plasma concentration reached) ([1]; 1-24 hours after administration): achieved a sufficient concentration that provides a medicinal effect
Cmax ([1]; rat, suspended in 0.5% HPMC aqueous solution, plasma): 3.5 µM
AUC(0-t) ([1]; rat, suspended in 0.5% HPMC aqueous solution, plasma, read-out: AUC0-24): 37 µM·h
change of chemical purity after storage [2]: ≤ 0.5%
change in weight due to changes in humidity (DVS) ([3]; 25° C., 5% RH to 95% RH and back to 5% RH): no changes in weight
powder X-ray crystal analysis before and after moisture adsorption and desorption ([3]; before and after DVS moisture adsorption and desorption): did not change
phase transition peak in DSC measurement [4]: no peak indicating a phase transition
